According to patent US8642612B2, “Nicotinic desensitizers and methods of selecting, testing, and using them” (Potomac Pharmaceuticals, Inc., priority 2006, dated 2014):
Like-named read-outs stand apart in the source and are kept apart here.

Assays:
[1] = cited from earlier work
rat α4β2 nAChRs = target: T1, rat α4β2 nAChRs (Rattus norvegicus, UniProt P09483+P12390); assay: [3H]epibatidine competition binding, rat α4β2 nAChRs expressed in HEK cells
T1 construct: expressed in transfected cells; host or cells: HEK cells (membrane homogenates)
Protocol: (§1) Briefly, cultured cells at >80% confluence were removed from their flasks (80 cm^2) with a disposable cell scraper and placed in 10 ml of 50 mM Tris HCl buffer (pH 7.4, 4° C.). The cell suspension was centrifuged at 10,000×g for 5 min and the pellet was collected. For cells treated chronically with nicotinic agonists during culturing, the pellet was washed two more times by centrifugation in fresh buffer to remove residual drug. […] Bound and free ligands were separated by vacuum filtration through Whatman GF/C filters treated with 0.5% polyethylenimine. The filter-retained radioactivity was measured by liquid scintillation counting. Specific binding was defined as the difference between total binding and nonspecific binding. Data from saturation and competition binding assays were analyzed using Prism 4 (GraphPad Software, San Diego, Calif.).
(§2) All ligand binding assays were carried out using rat or human nAChRs heterologously expressed in human cells or in native rat brain tissues.

rat α3β4 nAChRs [2] = target: T2, rat α3β4 nAChRs (Rattus norvegicus, UniProt P04757+P12392); assay: [3H]epibatidine competition binding, rat α3β4 nAChRs expressed in HEK cells
T2 construct: expressed in transfected cells; the efflux text says only stably transfected cells
Protocol: as §1, with “drug. The cell pellet was then homogenized in 10 ml buffer with a polytron homogenizer (Model PT2100, 12 mm aggregate, 26,000 rpm, 20 seconds) and centrifuged at 36,000 g for 10 min at 4° C. The membrane pellet was resuspended in fresh buffer, and aliquots of the membrane preparation equivalent to 30 to 200 μg protein were used for binding assays.” for “drug.”
as §2

human α4β2 nAChRs [3] = target: T3, human α4β2 nAChRs (Homo sapiens, UniProt P17787+P43681); format: cell-based; conditions: stimulation of 86Rb+ efflux
T3 construct: expressed in transfected cells; the efflux text says only stably transfected cells
Protocol: (§3) In brief, cells were plated into 24-well plates coated with poly-D-lysine. […] The cells were then incubated in growth medium (0.5 ml/well) containing ^86Rb^+ (2 μCi/ml) for 4 hour at 37° C. The loading mixture was then aspirated, and the cells were washed four times with 1 ml buffer (15 mM HEPES, 140 mM NaCl, 2 mM KCl, 1 mM MgSO4, 1.8 mM CaCl2, 11 mM Glucose, pH 7.4). One ml of buffer with or without compounds to be tested was then added to each well. After incubation for 2 min, the assay buffer was collected for measurements of ^86Rb^+ released from the cells. Cells were then lysed by adding 1 ml of 100 mM NaOH to each well, and the lysate was collected for determination of the amount of ^86Rb^+ that was in the cells at the end of the efflux assay. Radioactivity of assay samples and lysates was measured by liquid scintillation counting. Total loading (cpm) was calculated as the sum of the assay sample and the lysate of each well. The amount of ^86Rb^+ efflux was expressed as a percentage of […] loaded. […] IC50 values were determined by nonlinear least-squares regression analyses (GraphPad, San Diego, Calif.).
(§4) The agonist activities of ligands on nAChRs were assessed by measuring agonist-stimulated ^86Rb^+ efflux from stably transfected cells.

rat α3β4 nAChRs [4] = target: T2, rat α3β4 nAChRs; format: cell-based; conditions: stimulation of 86Rb+ efflux
Protocol: as §3, §4

human α4β2 nAChRs [5] = target: T3, human α4β2 nAChRs; assay: Inhibition of nicotine-stimulated 86Rb+ efflux, cells expressing human α4β2 nAChRs; format: cell-based
Protocol: as §3

rat α3β4 nAChRs [6] = target: T2, rat α3β4 nAChRs; assay: Inhibition of nicotine-stimulated 86Rb+ efflux, cells expressing rat α3β4 nAChRs; format: cell-based
Protocol: as §3

[7] = cited from earlier work; remark: listed apart in the source
[8] = example tables, species not given, read-out: Equilibrium binding affinity (Ki, nM) α4β2
[9] = example tables, species not given, read-out: Equilibrium binding affinity (Ki, nM) α3β4
[10] = 10 min pretreatment before nicotine, read-out: Desensitization Potency (IC50(D,10 min), nM) α4β2
[11] = applied simultaneously with nicotine, read-out: Acute Antagonist Potency (IC50(A), nM) α4β2
[12] = 10 min pretreatment before nicotine, read-out: Desensitization Potency (IC50(D,10 min), nM) α3β4
[13] = read-out: Acute Antagonist Potency (IC50(A), nM) α3β4
[14] = applied simultaneously with nicotine, read-out: Acute Antagonist Potency (IC50(A), nM) α3β4
[15] = Acute Antagonist Potency (IC50(A), nM) α4β2, applied simultaneously with nicotine
[16] = Desensitization Potency (IC50(D,10 min), nM) α4β2, 10 min pretreatment before nicotine
[17] = Acute Antagonist Potency (IC50(A), nM) α3β4, applied simultaneously with nicotine
[18] = Desensitization Potency (IC50(D,10 min), nM) α3β4, 10 min pretreatment before nicotine

Row | SMILES | t1/2 in vivo [1] [h] | Ki (rat α4β2 nAChRs; [8]) [nM] | Ki (rat α3β4 nAChRs [2]; [9]) [nM] | Agonist Activity α4β2 (human α4β2 nAChRs [3]) | Agonist Activity α3β4 (rat α3β4 nAChRs [4]) | IC50 (human α4β2 nAChRs [5]; [10]) [nM] | IC50 (human α4β2 nAChRs [5]; [11]) [nM] | IC50 (rat α3β4 nAChRs [6]; [12]) [nM] | IC50 (rat α3β4 nAChRs [6]; [13]) [nM] | Ki (rat α4β2 nAChRs) [nM] | Ki (rat α3β4 nAChRs [2]) [nM] | IC50 (rat α3β4 nAChRs [6]; [14]) [nM] | IC50 (human α4β2 nAChRs [5]; [15]) [nM] | IC50 (human α4β2 nAChRs [5]; [16]) [nM] | IC50 (rat α3β4 nAChRs [6]; [17]) [nM] | IC50 (rat α3β4 nAChRs [6]; [18]) [nM] | nausea, share of clinical trial participants [7] [%]
1 | CN1CCCC1c1cccnc1 (single isomer, unassigned; (-)) [(−)-Nicotine, nicotine] | > 1 | – | – | – | – | – | – | – | – | – | – | – | – | – | – | – | –
2 | Cc1cc2n(c(=O)c1)CC1CNCC2C1 (centres unmarked) [SKC-2-150] | – | 1.9 | 6700 | Not detected | Not detected | 250 | > 10000 | > 10000 | > 10000 | – | – | – | – | – | – | – | –
3 | O=c1cc(CO)cc2n1CC1CNCC2C1 (centres unmarked) [SKC-2-203] | – | 11 | 13000 | Not detected | Not detected | 600 | > 10000 | > 10000 | > 10000 | – | – | – | – | – | – | – | –
4 | CNc1ccccc1C(=O)OCC#Cc1cncc(OC[C@@H]2CCN2)c1 [Sazetidine-B] | – | – | – | Not detected | Not detected | 30 | > 10000 | 6000 | – | 0.22 | 1300 | > 10000 | – | – | – | – | –
5 | C#Cc1cncc(OC[C@@H]2CCCN2C)c1 [ZW-87] | – | 1.6 | 6800 | Not detected | Not detected | – | – | – | – | – | – | – | > 10000 | 50 | > 10000 | > 10000 | –
6 | CN1CCC[C@H]1COc1cncc(C#CC(C)(C)O)c1 [ZW-88] | – | 2.9 | – | Not detected | Not detected | – | – | – | – | – | 61000 | – | > 10000 | 890 | > 10000 | > 10000 | –
7 | CN1CCC[C@H]1COc1cncc(C#CCO)c1 [ZW-89] | – | 0.93 | 23000 | Not detected | Not detected | – | – | – | – | – | – | – | > 10000 | 180 | > 10000 | > 10000 | –
8 | CN1CCC[C@H]1COc1cncc(CCCCCCO)c1 [ZW-91] | – | – | – | Not detected | Not detected | – | – | – | – | – | – | – | > 10000 | 1000 | > 10000 | > 10000 | –
9 | CN1CCC[C@H]1COc1cncc(C#CCCCCCCCCO)c1 [ZW-93] | – | 6.1 | 66000 | Not detected | Not detected | – | – | – | – | – | – | – | 7400 | 460 | 4600 | 3800 | –
10 | CN1CCC[C@H]1COc1cncc(C#CCNC(=O)OC(C)(C)C)c1 [ZW-97] | – | – | – | Not detected | Not detected | 22 | > 10000 | 6900 | – | 1.4 | 75000 | > 10000 | – | – | – | – | –
11 | CN1CCC[C@H]1COc1cncc(C#Cc2ccccc2)c1 [ZW-98] | – | 0.51 | 8100 | Not detected | Not detected | 170 | > 10000 | 5300 | – | – | – | > 10000 | – | – | – | – | –
12 | CCCCC#Cc1cncc(OC[C@@H]2CCCN2C)c1 [ZW-100] | – | 1.4 | 40000 | Not detected | Not detected | 190 | > 10000 | 3300 | – | – | – | > 10000 | – | – | – | – | –
13 | CN1CCC[C@H]1COc1cncc(C#CCCCCO)c1 [ZW-101] | – | – | – | Not detected | Not detected | 160 | > 10000 | 2500 | – | 0.67 | 16000 | > 10000 | – | – | – | – | –
14 | FCCCCC#Cc1cncc(OC[C@@H]2CCCN2)c1 [ZW-102] | – | 0.91 | 7600 | Not detected | Not detected | – | – | – | – | – | – | – | > 10000 | 120 | > 10000 | 5400 | –
15 | FCCCCC#Cc1cncc(OC[C@@H]2CCN2)c1 [ZW-104] | – | – | 5500 | Not detected | Not detected | – | – | – | – | 0.21 | – | – | > 10000 | 5 | 9400 | 5700 | –
16 | CN1CCC[C@H]1COc1cncc(C#CCCCCBr)c1 [ZW-109] | – | – | – | Not detected | Not detected | 270 | > 10000 | 2300 | – | 1.4 | 16000 | 6900 | – | – | – | – | –
17 | CN1CCC[C@H]1COc1cncc(C#CCCCCF)c1 [ZW-110] | – | 0.95 | 88000 | Not detected | Not detected | – | – | – | – | – | – | – | > 10000 | 60 | > 10000 | > 10000 | –
18 | c1cnc2cc3c(cc2n1)[C@@H]1CNC[C@H]3C1 [varenicline] | – | – | – | – | – | – | – | – | – | – | – | – | – | – | – | – | ~30
